How the values were obtained:
[1] = Critical micelle concentration (fluorescent dye solubilization); assay type: physicochemical
Excerpt: The “Critical Micelle Concentration” (CMC) refers to the concentration of a detergent (e.g., an amphiphile as described herein) in an aqueous solution at which the detergent molecules self-assemble into micelles. Below the CMC, detergents are mostly monomeric; above the CMC, micelle concentration increases linearly with detergent concentration. The CMC is dependent upon many factors and is detergent-specific. The CMC of a detergent can be determined experimentally by measuring the solubilization of a water-insoluble dye or fluorophore while varying the concentration of detergent. A CMC may also be determined by measuring the diminution of the surface tension of an aqueous solution as a function of detergent concentration (CMCs determined by either method correlate with each other). The CMC is determined by extrapolating the plot of solubilization vs. concentration (or surface tension vs. concentration) in the two linear regions above and below the CMC. Where the two lines intersect is the CMC. The CMC can also be determined by the method of Nugebauer, J. M. (1990), Methods in Enzymology, 182:239-253.
The four compounds were readily prepared on a multi-gram scale (see Examples 1 and 2 below, and FIGS. 13-15), as is necessary if they are to serve as research tools. All four are highly soluble in aqueous solution (>20 wt %) and have relatively low critical micelle concentrations (CMC; determined by fluorescent dye solubilization).

[2] = Hydrodynamic radius of micelles by dynamic light scattering; assay type: physicochemical; conditions: Mean ± SD, n = 5
Excerpt: These values are somewhat smaller than the CMC of DDM, which indicates a strong tendency of the new agents to self-assemble, and which can be advantageous for IMP handling because detrimental levels of non-micellar amphiphile can be avoided. Table 1 provides the hydrodynamic radius (Rh) of the micelles formed by each amphiphile, as determined by dynamic light scattering (DLS). The micelles formed by GLC amphiphiles are slightly smaller than those formed by DDM, while the micelles formed by GDN are slightly larger.

β2AR-T4L = β2AR-T4L thermostability (Tm, carazolol fluorescence); set-up: species or system human; conditions: for β2AR-T4L Tm comparison at higher concentrations: higher concentrations than CMC+0.05 wt %
Experimental: To assess the new amphiphiles with a GPCR, a human 132 adrenergic receptor-T4-lysozyme fusion protein (β2AR-T4L) was used (Rosenbaum et al., Science 2007, 318, 1266-1273). Stability was assessed via […] of β2AR-T4L bound to the inverse agonist carazolol. β2AR-T4L was initially solubilized and purified with DDM, and this detergent was then exchanged for the agent to be evaluated. The fluorescence emission maximum of carazolol occurs at 356 nm in aqueous solution, but emission is shifted to 341 nm in the receptor-bound state. The 341:356 nm peak intensity ratio was used to monitor the relative amounts of intact and denatured β2AR-T4L, with Tm defined as the temperature at which the 341:356 nm peak intensity ratio is half-way between that of fully native receptor and the fully denatured receptor.
Stability of β2AR-T4L was assessed by measuring the melting temperature (Tm) of the receptor according to the procedure reported by Chae and coworkers (Nat. Methods 2010, 7, 1003-1008).
A receptor fusion protein of T4 lysozyme inserted in the 3rd intracellular loop of the β2AR^4 was cloned into BestBac baculovirus (Expression Systems, CA) and expressed in Sf9 insect cell cultures. The receptor was solubilized and purified in DDM as previously described (Kobilka, Anal. Biochem. 1995, 231, 269-271). […]
For stability measurements the carazolol-bound receptor was diluted below the CMC for DDM by adding 3 μL of the concentrated receptor in a quartz cuvette containing 600 μL buffer (100 mM NaCl, 20 mM HEPES, pH 7.5) with amphiphiles at various concentrations above their CMC. […] Fluorescence emission from carazolol was obtained following 5 min incubations from 25 to 85° C. in twelve continuous 5° C. increments. Excitation was set at 325 nm, and emission was measured from 335 to 400 nm with an integration time of 0.3 s nm-1 using a bandpass of 1 nm for both excitation and emission. The 341:356 nm peak ratio was calculated and graphed using Microsoft Excel and GraphPad Prism software.

wild type β2AR (β2AR WT) = target: T1, wild type β2AR (β2AR WT) (Homo sapiens, UniProt P07550); assay: β2AR WT activity after extraction ([3H]-dihydroalprenolol binding); assay type: biochemical; conditions: for β2AR WT initial activity: extracted with 1 wt % or 2 wt % amphiphile; for β2AR WT activity over 72 hours: solubilized samples stored at 4° C.
T1 construct: made in house; host or cells: Sf9 insect cells (baculovirus); lysed cells and membranes extracted directly with amphiphile
Experimental: In the examples discussed above, conventional detergents such as DDM were used to extract IMPs from the membrane, and then in most cases the solution of detergent-solubilized protein was diluted with amphiphile-containing solutions to evaluate the new agents. With this approach it is possible that the small amount of residual conventional detergent could affect protein stability. To exclude this possibility, GLC-3 and GDN were used to extract wild type β2AR (β2AR WT) (Kobilka, Trends in Pharmacological Sciences 2011, 32, 213-218) from the membrane. Receptor activity was measured via a binding assay involving the antagonist [^3H]-dihydroalprenolol. […] GDN is therefore highly suitable for GPCR extraction.
A gene encoding amino-terminally FLAG epitope tagged β2AR was expressed in Sf9 cells by baculovirus, with no ligand present during culture. Cells were infected at a density of 4×10^6 cells/mL and then cultured for 48 hours prior to harvesting by centrifugation. Cells were resuspended and lysed by osmotic shock with a low ionic strength buffer (20 mM Tris pH 7.5, 1 mM EDTA). The lysed cells were aliquoted 35 mg per aliquot, then frozen. For extraction tests, 300 μL of solubilization buffer (20 mM HEPES pH 7.5, 100 mM NaCl) containing each amphiphile was added to each aliquot, which was then homogenized by pipet followed by grinding with a glass dounce tissue homogenizer. After two-hour incubation at 4° C., samples were centrifuged at maximum speed in a tabletop microcentrifuge to pellet insoluble material. Supernatant was removed and assayed for protein concentration by DC protein assay (Bio-Rad).
The amount of functional receptor was quantified by incubation for 1 hour with 10 nM 3H dihydroalprenolol. Samples were then separated by gel filtration over G-50 resin and radioactivity was quantified by liquid scintillation. Nonspecific binding was measured in the presence of 10 μM alprenolol. Assays were performed in triplicate at time points indicated. G-50 filtration was performed in buffer containing 20 mM HEPES pH 7.5, 100 mM NaCl, 10-fold CMC of the detergent tested. All binding assays were performed with ice cold buffers.

T1 sequence (P07550 whole entry): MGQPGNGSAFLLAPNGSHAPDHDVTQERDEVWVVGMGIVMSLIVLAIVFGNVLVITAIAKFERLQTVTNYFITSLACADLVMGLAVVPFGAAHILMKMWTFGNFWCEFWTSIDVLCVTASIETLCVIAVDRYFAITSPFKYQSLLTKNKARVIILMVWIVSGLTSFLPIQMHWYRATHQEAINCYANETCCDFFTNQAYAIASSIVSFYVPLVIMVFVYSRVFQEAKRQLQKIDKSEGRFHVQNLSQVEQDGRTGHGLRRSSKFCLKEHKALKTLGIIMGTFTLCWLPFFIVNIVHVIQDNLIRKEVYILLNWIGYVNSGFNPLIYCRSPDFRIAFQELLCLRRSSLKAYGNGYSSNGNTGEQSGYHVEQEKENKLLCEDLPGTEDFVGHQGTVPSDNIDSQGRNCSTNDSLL

Row | SMILES | CMC [1] | CMC (wt %) [1] | Rh (nm), hydrodynamic radius of micelles [2] | β2AR-T4L Tm comparison at relatively low concentrations (β2AR-T4L; <CMC+0.05 wt %) | β2AR WT initial activity (wild type β2AR (β2AR WT); [3H]-dihydroalprenolol binding) | β2AR WT activity over 72 hours (wild type β2AR (β2AR WT)) | β2AR-T4L Tm comparison at higher concentrations (β2AR-T4L) | β2AR WT initial activity, increase relative to DDM (wild type β2AR (β2AR WT); [3H]-dihydroalprenolol binding)
1 | CCCCCCCCCCCCO[C@@H]1O[C@H](CO)[C@@H](O[C@H]2O[C@H](CO)[C@@H](O)[C@H](O)[C@H]2O)[C@H](O)[C@H]1O [DDM, dodecyl-β-D-maltoside, reference compound] | ~170 µM | ~0.0087 wt % | 3.42 ± 0.03 nm | superior to the new amphiphiles | low initial activity | rapidly decomposed |  | 
2 | C[C@@H]1CC[C@@]2(OC1)O[C@H]1C[C@H]3[C@@H]4CC=C5C[C@@H](OCCC(CO[C@@H]6OC(CO)[C@@H](O[C@H]7OC(CO)[C@@H](O)C(O)C7O)C(O)C6O)CO[C@@H]6OC(CO)[C@@H](O[C@H]7OC(CO)[C@@H](O)C(O)C7O)C(O)C6O)CC[C@]5(C)[C@H]4CC[C@]3(C)[C@@H]1[C@@H]2C (some centres unmarked) [GDN, glyco-diosgenin] | ~18 µM | ~0.0021 wt % | 3.86 ± 0.05 nm |  | high initial activity | did not vary over 72 hours | superior to DDM | > 3 fold
3 | CO[C@@H]1CC[C@@]2(C)[C@H](CC[C@@H]3[C@@H]2CC[C@]2(C)[C@@H]([C@H](C)CCCOCC(C)(CO[C@@H]4OC(CO)C(O[C@@H]5OC(CO)[C@@H](O)[C@H](O)C5O)[C@@H](O)C4O)CO[C@@H]4OC(CO)[C@@H](O[C@H]5OC(CO)[C@@H](O)[C@H](O)C5O)[C@H](O)C4O)CC[C@@H]32)C1 (some centres unmarked) [GLC-2] | ~8.0 µM | ~0.0009 wt % | 3.32 ± 0.04 nm |  |  |  | superior to DDM | 
